For the first experiment, the target named is T1, human recombinant serotonin (5-Hydroxytryptamine) 5-HT2A receptor (Homo sapiens, UniProt P28223).
T1 construct: expressed in transfected cells; host or cells: CHO-K1 cells
T1 sequence (P28223 whole entry): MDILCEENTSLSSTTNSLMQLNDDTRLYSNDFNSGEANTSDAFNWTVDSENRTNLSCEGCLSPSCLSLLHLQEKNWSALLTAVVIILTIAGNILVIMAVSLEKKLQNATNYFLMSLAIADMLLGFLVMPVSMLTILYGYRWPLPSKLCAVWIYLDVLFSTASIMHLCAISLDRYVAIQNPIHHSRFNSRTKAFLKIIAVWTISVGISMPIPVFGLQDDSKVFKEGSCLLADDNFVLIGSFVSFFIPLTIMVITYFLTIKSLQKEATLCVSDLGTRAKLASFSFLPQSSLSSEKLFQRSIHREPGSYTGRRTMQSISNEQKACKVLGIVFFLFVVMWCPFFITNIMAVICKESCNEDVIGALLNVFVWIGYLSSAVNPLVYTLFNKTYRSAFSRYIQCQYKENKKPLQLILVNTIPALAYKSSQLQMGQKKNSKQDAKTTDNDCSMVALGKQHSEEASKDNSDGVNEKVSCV
As to the kind of experiment: Serotonin 5-HT2A radioligand binding ([3H]Ketanserin). Conditions: compound at 1 μM; CHO-K1 cells; read-out: Serotonin (1 μM) 5-HT2A, percent inhibition of specific binding. As for the experimental part: To evaluate in radioligand binding assays the activity of compounds of the invention, human recombinant serotonin (5-Hydroxytryptamine) 5-HT2A receptor expressed in Chinese hamster ovary (CHO-K1) cells (Bonhaus, D. W. et al. Br. J. Pharmacol. 115:622, 1995; Saucier, C. and Albert, P. R., J. Neurochem. 68:1998, 1997) in a 50 mM Tris-HCl buffer, pH 7.4, was used. Compounds of the invention were incubated with 0.5 nM [^3H]Ketanserin for 60 minutes at 25° C. Non-specific binding was estimated in the presence of 1 μM Mianserin. Receptor proteins were filtered and washed, the filters were then counted to determine [^3H] Ketanserin specifically bound. Compounds were screened at 1 μM or lower, using 1% DMSO as vehicle. Biochemical assay results are presented as the percent inhibition of specific binding in Table 7.
Regarding `Cc1ccc2c(c1)c1c(n2CCC#N)CCN(C)C1` [CD92, 3-(2,8-dimethyl-3,4-dihydro-1H-pyrido[4,3-b]indol-5(2H)-yl)propanenitrile], the inhibition at 1 µM was found to be 67%. For `Cc1ccc2c(c1)c1c(n2CCC(N)=O)CCN(C)C1` [Compound 46, 3-(1,2,3,4-tetrahydro-2,8-dimethylpyrido[4,3-b]indol-5-yl)propanamide], the inhibition at 1 µM was 33%.

In the case of `CC(C)OC(=O)CCn1c2c(c3cc(Cl)ccc31)CN(C)CC2` [Compound 17, isopropyl 3-(8-chloro-1,2,3,4-tetrahydro-2-methylpyrido[4,3-b]indol-5-yl)propanoate], the inhibition at 1 µM turned out to be 84%. As to `Cc1ccc2c(c1)c1c(n2CCC(=O)NC(C)C)CCN(C)C1` [Compound 53], the inhibition at 1 µM stood at 39%. With `Cc1ccc2c(c1)c1c(n2CCC(=O)Nc2ccccc2)CCN(C)C1` [Compound 29], the inhibition at 1 µM came to 96%. Take `CN1CCc2c(c3cc(Cl)ccc3n2CCC(N)=O)C1` [Compound 67, 3-(8-chloro-1,2,3,4-tetrahydro-2-methylpyrido[4,3-b]indol-5-yl)propanamide]: the inhibition at 1 µM was 55%. The same measure, in the same setting: next, `Cc1ccc2c(c1)c1c(n2C2CCCCC2O)CCN(C)C1` (stereo not shown) [Compound 73, 2-(1,2,3,4-tetrahydro-2,8-dimethylpyrido[4,3-b]indol-5-yl)cyclohexanol]: 50%; `CN1CCc2c(c3cc(Cl)ccc3n2CCC(=O)OCc2ccccc2)C1` [Compound 19, benzyl 3-(8-chloro-1,2,3,4-tetrahydro-2-methylpyrido[4,3-b]indol-5-yl)propanoate]: 95%; `CN1CCc2c(c3cc(Cl)ccc3n2CCCO)C1` [CD87, 3-(8-chloro-2-methyl-3,4-dihydro-1H-pyrido[4,3-b]indol-5(2H)-yl)propan-1-ol]: 66%.

`Cc1ccc2c(c1)c1c(n2CCNC(=O)c2ccc(F)cc2)CCN(C)C1` [Compound 66, 4-fluoro-N-(2-(1,2,3,4-tetrahydro-2,8-dimethylpyrido[4,3-b]indol-5-yl)ethyl)benzamide]: the inhibition at 1 µM was found to be 98%. For the compound `CN1CCc2c(c3cc(Cl)ccc3n2CC(=O)OC(C)(C)C)C1` [Compound 12, tert-butyl 2-(8-chloro-1,2,3,4-tetrahydro-2-methylpyrido[4,3-b]indol-5-yl)acetate], the inhibition at 1 µM turned out to be 81%.

For the compound `CN1CCc2c(c3cc(Cl)ccc3n2CCC(=O)OC2CCCC2)C1` [Compound 21, cyclopentyl 3-(8-chloro-1,2,3,4-tetrahydro-2-methylpyrido[4,3-b]indol-5-yl)propanoate], the inhibition at 1 µM was determined as 98%. `CN1CCc2c(c3cc(Cl)ccc3n2CCC#N)C1` [CD94, 3-(8-chloro-2-methyl-3,4-dihydro-1H-pyrido[4,3-b]indol-5(2H)-yl)propanenitrile]: the inhibition at 1 µM turned out to be 60%. Consider `Cc1ccc2c(c1)c1c(n2CCC(=O)NC(C)(C)C)CCN(C)C1` [Compound 28], for which the inhibition at 1 µM worked out at 17%. Same read-out and setting: next, `Cc1ccc2c(c1)c1c(n2CCBr)CCN(C)C1` [CD91, 5-(2-bromoethyl)-2,8-dimethyl-2,3,4,5-tetrahydro-1H-pyrido[4,3-b]indole]: 96%; `Cc1ccc2c(c1)c1c(n2CC(=O)NCC2CCCCC2)CCN(C)C1` [Compound 26, N-(cyclohexylmethyl)-2-(1,2,3,4-tetrahydro-2,8-dimethylpyrido[4,3-b]indol-5-yl)acetamide]: 89%; `CN1CCc2c(c3cc(Cl)ccc3n2CC(=O)OCC2CCCCC2)C1` [Compound 14, cyclohexylmethyl 2-(8-chloro-1,2,3,4-tetrahydro-2-methylpyrido[4,3-b]indol-5-yl)acetate]: 103%.

For `Cc1ccc2c(c1)c1c(n2CCNC(=O)c2ccncc2C)CCN(C)C1` [Compound 69, N-(2-(1,2,3,4-tetrahydro-2,8-dimethylpyrido[4,3-b]indol-5-yl)ethyl)-3-methylpyridine-4-carboxamide], the inhibition at 1 µM was determined as 30%. In the case of `Cc1ccc2c(c1)c1c(n2CC(=O)NC(C)(C)C)CCN(C)C1` [Compound 24, N-tert-butyl-2-(1,2,3,4-tetrahydro-2,8-dimethylpyrido[4,3-b]indol-5-yl)acetamide], the inhibition at 1 µM is 9%. For the compound `CN1CCc2c(c3cc(Cl)ccc3n2CCC(=O)OCC2CCCCC2)C1` [Compound 20, cyclohexylmethyl 3-(8-chloro-1,2,3,4-tetrahydro-2-methylpyrido[4,3-b]indol-5-yl)propanoate], the inhibition at 1 µM was determined as 102%. `CN1CCc2c(c3cc(Cl)ccc3n2CCO)C1` [CD89, 2-(8-chloro-2-methyl-3,4-dihydro-1H-pyrido[4,3-b]indol-5(2H)-yl)ethanol]: the inhibition at 1 µM turned out to be 70%. Still for that read-out and setting: next, `Cc1ccc2c(c1)c1c(n2CCO)CCN(C)C1` [CD90, 2-(2,8-dimethyl-3,4-dihydro-1H-pyrido[4,3-b]indol-5(2H)-yl)ethanol]: 58%; `CCOC(=O)Cn1c2c(c3cc(C)ccc31)CN(C)CC2` [CD57, ethyl 2-(1,2,3,4-tetrahydro-2,8-dimethylpyrido[4,3-b]indol-5-yl)acetate]: 92%. As to `Cc1ccc2c(c1)c1c(n2CCNC(=O)C2CCCC2)CCN(C)C1` [Compound 68, N-(2-(1,2,3,4-tetrahydro-2,8-dimethylpyrido[4,3-b]indol-5-yl)ethyl)cyclopentanecarboxamide], the inhibition at 1 µM stood at 77%.

Still in this experiment, the particulars now being: read-out: Serotonin (1 μM) 5-HT2A, percent inhibition of specific binding.
For the compound `CN1CCc2c(c3cc(Cl)ccc3n2CCBr)C1` [CD88, 5-(2-bromoethyl)-8-chloro-2-methyl-2,3,4,5-tetrahydro-1H-pyrido[4,3-b]indole], the inhibition at 1 µM was 98%.

Another experiment deals with T2, human recombinant serotonin (5-Hydroxytryptamine) 5-HT7 receptor (Homo sapiens, UniProt P34969).
T2 construct: expressed in transfected cells; host or cells: CHO cells
T2 sequence (P34969 whole entry): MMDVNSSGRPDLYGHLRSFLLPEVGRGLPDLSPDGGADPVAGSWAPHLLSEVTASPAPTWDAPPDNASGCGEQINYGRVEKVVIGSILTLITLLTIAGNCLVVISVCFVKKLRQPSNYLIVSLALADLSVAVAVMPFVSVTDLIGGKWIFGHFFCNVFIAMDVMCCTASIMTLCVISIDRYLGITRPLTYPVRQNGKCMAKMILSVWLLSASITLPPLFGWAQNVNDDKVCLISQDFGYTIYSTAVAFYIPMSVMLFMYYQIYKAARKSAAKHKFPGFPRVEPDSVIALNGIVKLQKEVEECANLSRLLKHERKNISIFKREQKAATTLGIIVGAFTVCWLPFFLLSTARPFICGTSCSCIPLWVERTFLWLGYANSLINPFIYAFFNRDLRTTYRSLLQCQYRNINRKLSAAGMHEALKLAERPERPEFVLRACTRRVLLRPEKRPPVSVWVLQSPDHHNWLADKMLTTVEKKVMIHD
As to the kind of experiment: Serotonin 5-HT7 radioligand binding ([3H]LSD). Conditions: compound at 1 μM; CHO cells; read-out: Serotonin (1 μM) 5-HT7, percent inhibition of specific binding. As for the experimental part: To evaluate in radioligand binding assays the activity of compounds of the invention, human recombinant serotonin (5-Hydroxytryptamine) 5-HT7 receptor expressed in Chinese hamster ovary (CHO) cells (Roth, B. L. et al., J. Pharmacol. Exp. Ther. 268:1403, 1994; Shen, Y. et al., J. Biol. Chem. 268:18200, 1993) in a modified Tris-HCl buffer (50 mM Tris-HCl, pH 7.4, 10 mM MgCl2, 0.5 mM EDTA) was used. Compounds of invention were incubated with 5.5 nM [^3H] Lysergic acid diethylamide (LSD) for 2 hours at 25° C. Non-specific binding was estimated in the presence of 10 μM Serotonin (5-HT). Receptor proteins were filtered and washed, the filters were then counted to determine [^3H]LSD specifically bound. Compounds were screened at 1 μM or lower, using 1% DMSO as vehicle. Biochemical assay results are presented as the percent inhibition of specific binding in Table 7.
Take `Cc1ccc2c(c1)c1c(n2C2CCCCC2O)CCN(C)C1` (stereo not shown) [Compound 73, 2-(1,2,3,4-tetrahydro-2,8-dimethylpyrido[4,3-b]indol-5-yl)cyclohexanol]: the inhibition at 1 µM came out at 5%.

The next experiment deals with rat central imidazoline I2 receptor. As to the kind of experiment: Central imidazoline I2 radioligand binding ([3H]Idazoxan). Conditions: compound at 1 μM; Wistar Rat cerebral cortex. The procedure: To evaluate in radioligand binding assays the activity of compounds of the invention, rat central imidazoline I2 receptor obtained from Wistar Rat cerebral cortex (Brown, C. M. et al., Br. J. Pharmacol. 99:803, 1990) in a modified Tris-HCl buffer (50 mM Tris-HCl buffer, pH 7.4, 0.5 mM EDTA) was used. Compounds of the invention were incubated with 2 nM [^3H]Idazoxan for 30 minutes at 25° C. Non-specific binding was estimated in the presence of 1 μM Idazoxan. Receptor proteins were filtered and washed, the filters were then counted to determine [^3H]Idazoxan specifically bound. Compounds were screened at 1 μM or lower, using 1% DMSO as vehicle. Compounds of the invention were tested in this biochemical assay and percent inhibition of specific binding was determined. Biochemical assay results are presented as the percent inhibition of specific binding in Table 5.
`CCOC(=O)Cn1c2c(c3cc(Cl)ccc31)CN(C)CC2` [Compound 10, ethyl 2-(8-chloro-1,2,3,4-tetrahydro-2-methylpyrido[4,3-b]indol-5-yl)acetate]: the “Imidazoline I2 Central (1 μM), percent inhibition of specific binding” value turned out to be 25%. In the case of `Cc1ccc2c(c1)c1c(n2CCNC(=O)c2ccc(F)cc2Cl)CCN(C)C1` [Compound 63, 2-chloro-4-fluoro-N-(2-(1,2,3,4-tetrahydro-2,8-dimethylpyrido[4,3-b]indol-5-yl)ethyl)benzamide], the “Imidazoline I2 Central (1 μM), percent inhibition of specific binding” value is listed as 41%.

Usually inhibition stands for the change of the read-out against control, counted positive when it falls.

These data come from patent US9115137B2, “2,3,4,5-tetrahydro-1H-pyrido[4,3-B]indole compounds and methods of use thereof” (priority 2008, dated 2015).
